Values quoted from earlier work in patent publication US6765009B2, “1,4-Disubstituted benzo-fused compounds” (Boehringer Ingelheim Pharmaceuticals, Inc., priority 2001, dated 2004).

How the values were obtained:
closed brain injury = conditions: experimental model
rheumatoid arthritis = conditions: Phase III clinical trial
septic shock syndrome = conditions: phase III human clinical trial

CCCCCCC(C)(C)c1cc(O)c2c(c1)OC(C)(C)[C@H]1CC=C(CO)C[C@H]21 [HU-211]
outcome of closed brain injury (closed brain injury): improve the outcome

Enbrel
efficacy in treatment of rheumatoid arthritis (rheumatoid arthritis): demonstrated efficacy

IL-1ra: "IL-1 receptor antagonist (IL-1ra) had been examined in human clinical trials" ... "(Antril, Amgen)"
mortality rate in patients with septic shock syndrome (septic shock syndrome): reduced the mortality rate
